Results reported in US20200016076A1, “COMPOSITION FOR THE TREATMENT OF DUCHENNE MUSCULAR DYSTROPHY” (Summit (Oxford) Limited, priority 2016, published 2020).
In brackets after ≈: the same amount, converted by molar mass.

Tests used:
[1] = Solubility of ezutromid Form I polymorph in pharmaceutically-acceptable solvents at 20° C. (HPLC of saturated solutions); format: physicochemical; details: 1-propanol; 4 hours equilibration
Method: In each case, about 25 mg of drug substance was allowed to equilibrate with 250 μL of solvent over 4 hours. The resulting saturated solutions were filtered and analysed by HPLC.

[2] = Gravimetric vapour sorption analysis; format: physicochemical
Source text: Form I was subjected to gravimetric vapour sorption analysis, ramping profile from 0 to 90% RH at 10% RH increments.

[3] = system: mouse models of DMD; details: with corticosteroids including prednisone, prednisolone and deflazacort; WO2009/019504; cited from earlier work

Solubility at 20° C. [1]: 0.79 mg/mL (≈ 2340 µM)
Hygroscopicity ([2]; based on gravimetric vapour sorption): not hygroscopic
Moisture absorbed ([2]; up to 90% RH, 0 to 90% RH at 10% RH increments): no more than 0.25 % by weight
SMILES: CCS(=O)(=O)c1ccc2oc(-c3ccc4ccccc4c3)nc2c1 [ezutromid, 5-(ethylsulfonyl)-2-(naphthalen-2-yl)benzo[d]oxazole]
Reduction of exercise-induced fatigue with corticosteroids [3]: acts in synergy with corticosteroids
